Reference: PMC6874683, “Pyrrothiogatain acts as an inhibitor of GATA family proteins and inhibits Th2 cell differentiation in vitro” (Scientific Reports, 2019)

Tested on: GATA3 expression
Assay: Immunoblot of GATA3, naive CD4+ T cells under Th2 conditions
Format: cell-based, mouse
Conditions: 80 µM, 5 days
Description: Figure 5 Pyrrothiogatain inhibits Th2 cell differentiation and production of Th2 cytokines. (A) Intracellular staining of IL-5/IL-13, IL-4/IFN-γ, and IL-2/IFN-γ in naive CD4^+ T cells cultured under Th2 conditions in the presence or absence of pyrrothiogatain (30 and 80 µM) for five days. (B) Cytokine production induced in the pyrrothiogatain treated Th2 cells shown in panel (A) was determined by ELISA. (C) Quantitative RT-PCR analysis of the pyrrothiogatain-treated Th2 cells shown in panel (A). (D) Immunoblot analysis of GATA3 in naive CD4^+ T cells cultured under Th2 conditions in the presence or absence of pyrrothiogatain (80 µM) for 5 days. (E) Cytokine production from Th2 cells stimulated with immobilized anti-TCRβ mAb for 16 h in the presence or absence of pyrrothiogatain (0 to 100 µM). The amounts of IL-4, IL-5 and IL-13 in the culture supernatants were determined by ELSA. In (B), (C) and (E), all data are expressed as individual points of three independent experiments with error bars indicating standard deviation. […]

Cc1ccc(C)n1-c1ccsc1C(=O)O [Pyrrothiogatain, 3-(2,5-dimethyl-1H-pyrrol-1-yl)thiophene-2-carboxylic acid]
Expression of GATA3, protein level: not influenced
